Measured values taken from article PMC9313812, “The Pseudo‐Natural Product Rhonin Targets RHOGDI” (Angewandte Chemie (International Ed. in English), 2022).

Legend:
RHOGDI1 = biological target: T1, RHOGDI1 (Homo sapiens, UniProt P52565); experiment: Catch-and-release proteomics with lysine-reactive probe STPyne; format: binding; details: 100 µM compound, 30 µM STPyne, HEK293T lysate
T1 construct: GST; made in house; host or cells: E. coli
Method: Supplementary Table S11: Extracted list of STPyne PC cleaved RHOGDI peptides identified by catch-and-release proteomics. HEK293T lysate overexpressing RHOGDI-F was treated with 100 µM Rhonin or DMSO, followed by 30 µM STPyne. Asterisks indicate […]
(also on this page, place not known: S 11: catch -and-release RHOGDI -F DMS O, Modified lysine position Average ratio intensity STPyne-Rhonin-100 µM/DMSO SD ratio intensity STPyne-Rhonin-100 µM/DMSO 15) […]
(§1) (1 picture or pasted object on this page, not shown here)
Samples were acidified to a final concentration of 5% acetic acid, desalted over a self-packed C18 spin column, and dried. Peptides were resuspended in water with 0.1 % formic acid (FA) and analyzed using EASY-nLC 1200 nano-UHPLC coupled to Q Exactive HF-X Quadrupole-Orbitrap mass spectrometer (Thermo Scientific). The chromatography column consisted of a 45 cm long, 75 μm i.d. microcapillary capped by a 5 μm tip and packed with ReproSil -Pur 120 C18-AQ 2.4 μm beads (Dr. Maisch GmbH). LC solvents were 0.1 % FA in water (Buffer A) and 0.1 % FA in 90 % MeCN: 10 % water (Buffer B). […] The MS data was analyzed with MaxQuant[11] and searched against the human proteome (Uniprot), a common list of contaminants (included in MaxQuant) and the amino acid sequence of recombinant RHOGDI. […]

PDEδ = biological target: T2, PDEδ (Homo sapiens, UniProt O43924); experiment: Competition-based fluorescence polarization with fluorescein-labelled atorvastatin; format: binding; details: selectivity test
T2 construct: GST (N); made in house; host or cells: E. coli Rosetta 2
Method: RHOGDI1 displaced liposome -bound RAC1 from the surface of L1 chip with a koff of 0.016 […]
bound RAC1. Calculated rate constants by mono-exponential fitting of RU decays were 0.02 and 0.032 s-1 for RHOGDI1-mediated RAC1 displacement from the liposomes in the presence of 7a and 7d, respectively. (d) Competition-based fluorescence polarization experiments were performed by titration of 7a against 10 nM fluorescein-labelled atorvastatin and GST-PDEδ.
(e) Fluorescence polarization experiment using 10 nM probe 10 and titration of PDEδ.
as §1
Label-free quantification (LFQ) intensities were logarithmized (log2) and proteins, which were not three times quantified in at least one of the groups, were filtered off. […]
Fluorescence polarization
The binding of probe 10 to RHOGDI1-3 was confirmed by fluorescence polarization experiments. […] The change in fluorescence polarization was monitored at an excitation / emission wavelengths of 535 nm and 593 nm, respectively. […]
To determine the effect of 7a on the binding of RHOGDI1 to non-prenylated RAC1-GDP, fluorescence polarization measurements were performed by titrating 1 µM TAMRA-GDP-bound RAC1 with increasing concentrations of RHOGDI1 in the presence and absence of 50 µM 7a in buffer containing 30 mM Tris-HCl, pH 7.5, 150 mM NaCl, 5 mM MgCl2, 1% DMSO. […]

Structure (SMILES) | STPyne labeling of RHOGDI1 lysines in presence of compound (in words) (RHOGDI1) | Competition with fluorescein-labelled atorvastatin for binding to PDEδ (in words) (PDEδ)
COC(=O)C1(C(CC(=O)c2cccnc2)c2ccccc2)N=C(c2ccc(Br)cc2)C2C(=O)N(C)C(=O)C21 (centres unmarked) [7l] | lysines 186 and 199 in RHOGDI1 were less efficiently labeled | –
COC(=O)C1(C(CC(=O)c2ccccc2)c2ccccc2)N=C(c2ccc(Br)cc2)C2C(=O)N(C)C(=O)C21 (centres unmarked) [7a] | – | does not compete
